# Tested on: transgenic mice expressing agouti specifically in adipocytes under the control of the aP2 promoter
# Assay: Example 2: weight, fat pad and muscle mass after six weeks on diets including fresh whey products
# Type: in vivo
# Details: Example 2, FIG. 11, 1 = Ad Lib, 2 = loCa, 3 = milk, 4 = fresh whey protein, 5 = casein, 6 = soy, 7 = fresh whey mineral, 8 = fresh whey mineral/ACE
# Text: The same animals were used as in Example 1. […] All diets had 25% fat (lard+soy oil), with sucrose as sole carbohydrate and the proteins indicated as the sole protein source. Group 1 continued for 6 weeks on the above diet ad libitum. Groups 2-8 continued for six weeks on a restricted diet (70% of the ad libitum energy intake). […] Group 8 used a fresh whey mineral isolate with a whey-derived ACE-inhibitor (e.g., BIPRO). During the six weeks, body weight, food intake and core temperature were measured weekly. […] Specifically, core temperature was monitored weekly as an indirect metabolic index using a thermocouple, and fasting insulin (by radioimmunoassay), leptin (by radioimmunoassay) and glucose (by glucose oxidase) levels were assessed at baseline and at weeks 2, and 6. At the conclusion of the study, all mice were sacrificed under isofluorane anaesthesia and individual subcutaneous and visceral fat depots were excised and weighed for comparison of fat accumulation among the groups and assessment of adipocyte size and number via a Coulter Counter method. Aliquots of adipose tissue were then immediately frozen in liquid nitrogen for subsequent study of gene expression.
structure (smiles),measurement,value
O=C([O-])[O-].[Ca+2] [calcium carbonate],"gastrocnemius muscle mass (most to least), Benefit Ranking",did not modify or attenuate this decrease

# Reference: patent publication US20090053199A1, “Stable Dairy Components Effective for Fat Loss” (priority 2005, published 2009)
